Results taken from patent US20100093645A1, “SMAC Peptidomimetics and the Uses Thereof” (priority 2004, published 2010).
Square brackets hold non-standard residues; d marks the D form. Peptide text beside a SMILES is read from it. Abu = CC[C@H](N)C(=O)O

Key:
[1] = molecular target: T1, human XIAP-BIR3 protein (residues 241-356) (Homo sapiens, UniProt P98170); assay: Competitive fluorescence polarization (FP-based) binding assay with SM5F probe; conditions: SM5 vs S9
Target sequence in this assay (P98170 241-356): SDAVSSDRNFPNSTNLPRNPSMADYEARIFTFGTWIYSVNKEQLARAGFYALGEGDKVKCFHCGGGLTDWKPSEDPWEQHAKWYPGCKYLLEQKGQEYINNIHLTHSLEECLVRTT

[2] = molecular target: T1, human XIAP-BIR3 protein (residues 241-356); assay: biochemical
[3] = molecular target: XIAP (Homo sapiens, UniProt P98170); conditions: background statement; cited from earlier work
Sequence of XIAP (P98170 whole entry): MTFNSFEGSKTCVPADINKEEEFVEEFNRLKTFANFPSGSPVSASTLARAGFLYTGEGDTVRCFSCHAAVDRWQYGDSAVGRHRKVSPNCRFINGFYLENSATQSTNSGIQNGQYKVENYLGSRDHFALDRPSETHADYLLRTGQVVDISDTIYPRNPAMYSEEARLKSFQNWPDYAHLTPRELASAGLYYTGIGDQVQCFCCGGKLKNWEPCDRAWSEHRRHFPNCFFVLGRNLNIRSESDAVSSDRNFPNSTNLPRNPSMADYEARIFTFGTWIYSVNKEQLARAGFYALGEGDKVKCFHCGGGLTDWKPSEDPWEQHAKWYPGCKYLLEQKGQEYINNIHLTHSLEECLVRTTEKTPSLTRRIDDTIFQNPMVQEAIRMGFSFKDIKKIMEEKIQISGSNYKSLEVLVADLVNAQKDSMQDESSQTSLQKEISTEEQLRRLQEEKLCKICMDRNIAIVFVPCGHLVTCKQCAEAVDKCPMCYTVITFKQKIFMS

Row | Molecule | ratio of the IC50 values for unlabeled SM5 and S9 [1] [fold] | IC50 [2] [nM] | Ki [2] [nM] | Kd [3] [nM]
1 | CC[C@H](N)C(=O)N[C@@H](CCCNC(=N)N)C(=O)N1CCC[C@H]1C(=O)N[C@@H](Cc1ccccc1)C(=O)N[C@@H](CCCCN)C(=O)O [SM5, AbuRPFK, reference compound] (H-[Abu]RPFK-OH; N-terminus and C-terminus assumed) | 6.7 | 220 ± 10 | 75 ± 5 | –
2 | mature Smac protein: second mitochondria-derived activator of caspases, mature polypeptide (protein, UniProt Q9NR28 22-239, looked up) Diablo IAP-binding …: LCVPVVANFKKRCFSELIRPWHKTVTIGFGVTLCAVPIAQKSEPHSLSSEALMRRAVSLVTDSTSTFLSQTTYALIEAITEYTKAVYTLTSLYRQYTSLLGKMNSEEEDEVWQVIIGARAEMTSKHQEYLKLETTWMTAVGLSEMAAEAAYQTGADQASITARNHIQLVKLQVEEVHQLSRKAETKLAEAQIEELRQKTQEEGEERAESEQEAYLRED | – | – | – | 420
